According to patent publication US20080138284A1, “Novel Peptides That Promote Lipid Efflux” (Lipid Sciences, Inc., priority 2006, published 2008):
Ends that are not written are not given here.

How the values were obtained:
CD11b = CD11b expression in stimulated monocytes by flow cytometry; type: cell-based; conditions: human monocytes, 1 μmol/L PMA, 20 μg/ml apoA-1 or peptide
Description: Monocyte Isolation Peripheral whole blood (PWB) is drawn from healthy consenting individuals into syringes containing sodium citrate (final concentration—19.2 mM). Resting human monocytes are isolated from PWB by density centrifugation with Lymphoprep (Axis Shield). Mononuclear cells (MNCs) are collected and monocytes are further separated to purity using the Dynal negative isolation kit (Invitrogen). Monocytes are resuspended in phosphate buffered saline (PBS) and cell number is determined counting cell suspension on an automated hematology analyzer (Sysmex, KX-21N, USA). Purification of HDL and apoA-1 Human plasma apoA-1 is isolated as previously described and the purity determined using total mass spectrometry. Flow Cytometry 100 μL of monocytes are stimulated with either 1 μmol/L phorbol-myristate-acetate (PMA) or 1 μg/ml lipopolysaccharide (LPS) (Sigma, Australia) in the presence or absence of apoA-1 (20 μg/ml), or 20 μg/ml of the test peptides of the present invention. SEQ ID NOs: 72, 80, 89, 354, 355 and 372 are also tested individually. The cells are incubated with the FITC conjugated antibody to either the active epitope of CD11b (eBiosciences, USA, Clone CBRM1/5) or total CD11b (Serotec, USA, Clone ICRF44) for 15 min at 37° C. Cells are then fixed with 4% paraformaldehyde. Samples are controlled for by using the appropriately matched isotype matched negative control (FITC-anti-mouse IgG) (Serotec, USA, Clone W3/25). CD11b expression is measured by flow cytometry using FACS Calibur (Becton Dickinson). Analysis is conducted using the Cell Quest Pro software. Statistical Analysis Values are presented as the mean ±SD or percentage of control ±SD. FACS results are analyzed for statistical significance using one-way ANOVA followed by Bonferroni post-hoc test. Significance is accepted at P<0.05. […] The combined effects of increasing cholesterol efflux and decreasing inflammation indicate that the peptides of the present invention effectively mimic the function of Apo AI and will decrease atherosclerosis.

[1] = tested on: HeLa cells transfected with only a hygromycin-resistant control plasmid (control cells); assay: Cholesterol and phospholipid efflux from control HeLa cells (incl. time course); type: cell-based, human; conditions: for cholesterol efflux from control cells, time course: rate compared with ABCA1 cells
Description: HeLa cells stably transfected with human ABCA1 cDNA (ABCA1 cells) and HeLa cells transfected with only a hygromycin-resistant control plasmid (control cells) are produced and grown in α-modified Eagle's medium (aMEM) plus 10% fetal calf serum, as described by Remaley et al. (Biochem. Biophys. Res. Commun. 280:818-823, 2001). Cholesterol and phospholipid efflux is performed for 18 hours on noncholesterol-loaded cells radiolabeled with either cholesterol or choline (Remaley et al., Arterioscler. Thromb. Vasc. Biol. 17:1813-1821, 1997). Percentage efflux is calculated after subtracting the radioactive counts in the blank media (aMEM plus 1 mg/ml of BSA), and expressed as the percent of total radioactive counts removed from the cells during the efflux period.
ABCA1 cells are used to assess the ability of apoA-I and synthetic peptides to efflux lipid from cells. […] The peptides of the present invention efflux approximately 2- to 4-fold more cholesterol and phospholipid from ABCA1 cells than from control cells. Both the peptides of the present invention and apoA-I began to show saturation for lipid efflux at approximately the same protein concentration of 10 μg/ml.
Cholesterol efflux from ABCA1 cells to apoA-I is first detectable after 2 hours and increases throughout the 30 hour efflux period. […] Overall, the kinetics for cholesterol efflux to peptides of the present invention from ABCA1 cells is similar to that of apoA-I, except that cholesterol efflux is first detectable after 30 minutes.

[2] = tested on: atherosclerotic coronary artery; assay: Coronary atherosclerosis by IVUS in individuals with acute coronary syndrome; type: in vivo, human; conditions: iv weekly for 5 to 8 weeks, on stable hypolipidemic drug therapy
From the text: Individuals with acute coronary syndrome and documented atherosclerosis have a cardiac catherization with intravascular ultrasound (IVUS) to document coronary atherosclerosis of 20 to 50% obstruction in the target artery. Each individual is on stable hypolipidemic drug therapy and receives an acceptable dose of a peptide of the present invention and/or an associated fragment iv weekly for a period of 5 to 8 weeks. A repeat IVUS measurement is made at the end of the treatment period to assess the effect of the peptide infusion on coronary atherosclerosis in the target vessel.

GEEMRDRARAHVDALRTHAKPVLLESFKVSFLSALEEYTKK [SEQ ID NO:72]
PMA induced CD11b expression (CD11b): significantly reduce PMA induced CD11b expression | removal of cholesterol and phospholipids from control cells relative to Apo A-I [1]: comparable to or more than that removed by Apo A-I | cholesterol efflux from control cells, time course [1]: promote cholesterol efflux from control cells but at a lower rate | plaque in the atherosclerotic coronary artery (IVUS) [2]: reduce plaque in the atherosclerotic coronary artery

SDELRQRLAARLEALKENAKPVLLESFKVSFLSALEEYTKK [SEQ ID NO:80]
PMA induced CD11b expression (CD11b): significantly reduce PMA induced CD11b expression | removal of cholesterol and phospholipids from control cells relative to Apo A-I [1]: comparable to or more than that removed by Apo A-I | cholesterol efflux from control cells, time course [1]: promote cholesterol efflux from control cells but at a lower rate | plaque in the atherosclerotic coronary artery (IVUS) [2]: reduce plaque in the atherosclerotic coronary artery

Ac-Leu Glu Ser Ala Lys Val Ser Ala Leu Ser Ala Leu Glu Glu Ala Thr Lys Lys Ala Lys Pro Val Leu Leu Glu Ser Phe Lys Val Ser Phe Leu Ser Ala Leu Glu Glu Tyr Thr Lys Lys-NH2 (Ac-LESAKVSALSALEEATKKAKPVLLESFKVSFLSALEEYTKK-NH2) [SEQ ID NO:372]
PMA induced CD11b expression (CD11b): significantly reduce PMA induced CD11b expression | removal of cholesterol and phospholipids from control cells relative to Apo A-I [1]: comparable to or more than that removed by Apo A-I | cholesterol efflux from control cells, time course [1]: promote cholesterol efflux from control cells but at a lower rate | plaque in the atherosclerotic coronary artery (IVUS) [2]: reduce plaque in the atherosclerotic coronary artery

Ac-Gly Glu Glu Met Arg Asp Arg Ala Arg Ala His Val Asp Ala Leu Arg Thr His Ala Lys Pro Val Leu Leu Glu Ser Phe Lys Val Ser Phe Leu Ser Ala Leu Glu Glu Tyr Thr Lys Lys-NH2 (Ac-GEEMRDRARAHVDALRTHAKPVLLESFKVSFLSALEEYTKK-NH2) [SEQ ID NO:354]
PMA induced CD11b expression (CD11b): significantly reduce PMA induced CD11b expression | removal of cholesterol and phospholipids from control cells relative to Apo A-I [1]: comparable to or more than that removed by Apo A-I | cholesterol efflux from control cells, time course [1]: promote cholesterol efflux from control cells but at a lower rate | plaque in the atherosclerotic coronary artery (IVUS) [2]: reduce plaque in the atherosclerotic coronary artery

LESAKVSALSALEEATKKAKPVLLESFKVSFLSALEEYTKK [SEQ ID NO:89]
PMA induced CD11b expression (CD11b): significantly reduce PMA induced CD11b expression | removal of cholesterol and phospholipids from control cells relative to Apo A-I [1]: comparable to or more than that removed by Apo A-I | cholesterol efflux from control cells, time course [1]: promote cholesterol efflux from control cells but at a lower rate | plaque in the atherosclerotic coronary artery (IVUS) [2]: reduce plaque in the atherosclerotic coronary artery

Ac-Ser Asp Glu Leu Arg Gln Arg Leu Ala Ala Arg Leu Glu Ala Leu Lys Glu Asn Ala Lys Pro Val Leu Leu Glu Ser Phe Lys Val Ser Phe Leu Ser Ala Leu Glu Glu Tyr Thr Lys Lys-NH2 (Ac-SDELRQRLAARLEALKENAKPVLLESFKVSFLSALEEYTKK-NH2) [SEQ ID NO:355]
PMA induced CD11b expression (CD11b): significantly reduce PMA induced CD11b expression | removal of cholesterol and phospholipids from control cells relative to Apo A-I [1]: comparable to or more than that removed by Apo A-I | cholesterol efflux from control cells, time course [1]: promote cholesterol efflux from control cells but at a lower rate | plaque in the atherosclerotic coronary artery (IVUS) [2]: reduce plaque in the atherosclerotic coronary artery
